Measured values taken from ChEMBL document CHEMBL4376820, “Homodimeric Tobramycin Adjuvant Repurposes Novobiocin as an Effective Antibacterial Agent against Gram-Negative Bacteria” (J Med Chem, 2019).
Calls of active or inactive are those of the source. The calls are words filed in the database; no cut-off is given here.

Experiments:
Pseudomonas aeruginosa [1] = test: Synergistic antibacterial activity against wild type Pseudomonas aeruginosa PAO1 assessed as potentiation of linezolid-induced antibacterial effect incubated for 18 hrs by checkerboard assay relative to linezolid alone; assay type: functional
Pseudomonas aeruginosa [2] = test: Synergistic antibacterial activity against wild type Pseudomonas aeruginosa PAO1 assessed as potentiation of levofloxacin-induced antibacterial effect incubated for 18 hrs by checkerboard assay relative to levofloxacin alone; assay type: functional
Pseudomonas aeruginosa [3] = test: Synergistic antibacterial activity against wild type Pseudomonas aeruginosa PAO1 assessed as potentiation of fosfomycin-induced antibacterial effect incubated for 18 hrs by checkerboard assay; assay type: functional, organism-based
Pseudomonas aeruginosa [4] = test: Synergistic antibacterial activity against wild type Pseudomonas aeruginosa PAO1 assessed as potentiation of doxycycline-induced antibacterial effect incubated for 18 hrs by checkerboard assay; assay type: functional, organism-based
Pseudomonas aeruginosa [5] = test: Synergistic antibacterial activity against wild type Pseudomonas aeruginosa PAO1 assessed as potentiation of linezolid-induced antibacterial effect incubated for 18 hrs by checkerboard assay; assay type: functional, organism-based
Pseudomonas aeruginosa [6] = test: Synergistic antibacterial activity against wild type Pseudomonas aeruginosa PAO1 assessed as potentiation of novobiocin-induced antibacterial effect incubated for 18 hrs by checkerboard assay; assay type: functional, organism-based
Pseudomonas aeruginosa [7] = test: Synergistic antibacterial activity against wild type Pseudomonas aeruginosa PAO1 assessed as potentiation of doxycycline-induced antibacterial effect incubated for 18 hrs by checkerboard assay relative to doxycycline alone; assay type: functional
Pseudomonas aeruginosa [8] = test: Synergistic antibacterial activity against wild type Pseudomonas aeruginosa PAO1 assessed as potentiation of chloramphenicol-induced antibacterial effect incubated for 18 hrs by checkerboard assay relative to chloramphenicol alone; assay type: functional
Pseudomonas aeruginosa [9] = test: Synergistic antibacterial activity against wild type Pseudomonas aeruginosa PAO1 assessed as potentiation of cefotaxime-induced antibacterial effect incubated for 18 hrs by checkerboard assay; assay type: functional, organism-based
Pseudomonas aeruginosa [10] = test: Synergistic antibacterial activity against wild type Pseudomonas aeruginosa PAO1 assessed as potentiation of minocycline-induced antibacterial effect incubated for 18 hrs by checkerboard assay; assay type: functional, organism-based
Pseudomonas aeruginosa [11] = test: Synergistic antibacterial activity against wild type Pseudomonas aeruginosa PAO1 assessed as potentiation of meropenem-induced antibacterial effect incubated for 18 hrs by checkerboard assay; assay type: functional, organism-based
Pseudomonas aeruginosa [12] = test: Synergistic antibacterial activity against wild type Pseudomonas aeruginosa PAO1 assessed as potentiation of novobiocin-induced antibacterial effect incubated for 18 hrs by checkerboard assay relative to novobiocin alone; assay type: functional
Pseudomonas aeruginosa [13] = test: Synergistic antibacterial activity against wild type Pseudomonas aeruginosa PAO1 assessed as potentiation of ceftazidime-induced antibacterial effect incubated for 18 hrs by checkerboard assay relative to ceftazidime alone; assay type: functional
Pseudomonas aeruginosa [14] = test: Synergistic antibacterial activity against wild type Pseudomonas aeruginosa PAO1 assessed as potentiation of chloramphenicol-induced antibacterial effect incubated for 18 hrs by checkerboard assay; assay type: functional, organism-based
Pseudomonas aeruginosa [15] = test: Synergistic antibacterial activity against wild type Pseudomonas aeruginosa PAO1 assessed as potentiation of clindamycin-induced antibacterial effect incubated for 18 hrs by checkerboard assay; assay type: functional, organism-based
Pseudomonas aeruginosa [16] = test: Synergistic antibacterial activity against wild type Pseudomonas aeruginosa PAO1 assessed as potentiation of moxifloxacin-induced antibacterial effect incubated for 18 hrs by checkerboard assay; assay type: functional, organism-based
Pseudomonas aeruginosa [17] = test: Antibacterial activity against wild type Pseudomonas aeruginosa PAO1 assessed as fractional inhibitory concentration index incubated for 18 hrs in presence of tobramycin by checkerboard assay; assay type: functional
Pseudomonas aeruginosa [18] = test: Synergistic antibacterial activity against wild type Pseudomonas aeruginosa PAO1 assessed as potentiation of aztreonam-induced antibacterial effect incubated for 18 hrs by checkerboard assay; assay type: functional, organism-based
Pseudomonas aeruginosa [19] = test: Synergistic antibacterial activity against wild type Pseudomonas aeruginosa PAO1 assessed as potentiation of clindamycin-induced antibacterial effect incubated for 18 hrs by checkerboard assay relative to clindamycin alone; assay type: functional
Pseudomonas aeruginosa [20] = test: Synergistic antibacterial activity against wild type Pseudomonas aeruginosa PAO1 assessed as potentiation of meropenem-induced antibacterial effect incubated for 18 hrs by checkerboard assay relative to meropenem alone; assay type: functional
Pseudomonas aeruginosa [21] = test: Synergistic antibacterial activity against wild type Pseudomonas aeruginosa PAO1 assessed as potentiation of colistin-induced antibacterial effect at <=7.1 uM incubated for 18 hrs by checkerboard assay; assay type: functional, organism-based
HEK293 = test: Cytotoxicity against human HEK293 cells at 50 uM incubated for 48 hrs by PrestoBlue dye based fluorescence assay; assay type: cell-based; conditions: hek293, 48 h
Pseudomonas aeruginosa [22] = test: Synergistic antibacterial activity against wild type Pseudomonas aeruginosa PAO1 assessed as potentiation of levofloxacin-induced antibacterial effect incubated for 18 hrs by checkerboard assay; assay type: functional, organism-based
Erythrocyte = test: Hemolytic activity against porcine erythrocytes assessed as hemoglobin release at 1024 ug/ml incubated for 1 hr by microplate reader analysis; assay type: ADME, cell-based, Sus scrofa; conditions: pig
Pseudomonas aeruginosa [23] = test: Synergistic antibacterial activity against wild type Pseudomonas aeruginosa PAO1 assessed as potentiation of aztreonam-induced antibacterial effect incubated for 18 hrs by checkerboard assay relative to aztreonam alone; assay type: functional
Pseudomonas aeruginosa [24] = test: Synergistic antibacterial activity against wild type Pseudomonas aeruginosa PAO1 assessed as potentiation of ciprofloxacin-induced antibacterial effect incubated for 18 hrs by checkerboard assay relative to ciprofloxacin alone; assay type: functional
Pseudomonas aeruginosa [25] = test: Synergistic antibacterial activity against wild type Pseudomonas aeruginosa PAO1 assessed as potentiation of rifampicin-induced antibacterial effect incubated for 18 hrs by checkerboard assay; assay type: functional, organism-based
Pseudomonas aeruginosa [26] = test: Synergistic antibacterial activity against wild type Pseudomonas aeruginosa PAO1 assessed as potentiation of tobramycin-induced antibacterial effect at <= 7.1 uM incubated for 18 hrs by checkerboard assay; assay type: functional, organism-based
[27] = Toxicity in Galleria mellonella larvae assessed as survivability at 200 mg/kg measured every 6 hrs for 72 hrs; assay type: organism-based; conditions: in vivo
Pseudomonas aeruginosa [28] = test: Synergistic antibacterial activity against wild type Pseudomonas aeruginosa PAO1 assessed as potentiation of piperacillin-induced antibacterial effect incubated for 18 hrs by checkerboard assay relative to piperacillin alone; assay type: functional
HepG2 = test: Cytotoxicity against human HepG2 cells at 50 uM incubated for 48 hrs by PrestoBlue dye based fluorescence assay; assay type: cell-based; conditions: hepg2, 48 h
Pseudomonas aeruginosa [29] = test: Synergistic antibacterial activity against wild type Pseudomonas aeruginosa PAO1 assessed as potentiation of moxifloxacin-induced antibacterial effect incubated for 18 hrs by checkerboard assay relative to moxifloxacin alone; assay type: functional
Pseudomonas aeruginosa [30] = test: Synergistic antibacterial activity against wild type Pseudomonas aeruginosa PAO1 assessed as potentiation of ceftazidime-induced antibacterial effect incubated for 18 hrs by checkerboard assay; assay type: functional, organism-based
Pseudomonas aeruginosa [31] = test: Synergistic antibacterial activity against wild type Pseudomonas aeruginosa PAO1 assessed as potentiation of minocycline-induced antibacterial effect incubated for 18 hrs by checkerboard assay relative to minocycline alone; assay type: functional
Pseudomonas aeruginosa [32] = test: Synergistic antibacterial activity against wild type Pseudomonas aeruginosa PAO1 assessed as potentiation of vancomycin-induced antibacterial effect at <=7.1 uM incubated for 18 hrs by checkerboard assay; assay type: functional, organism-based
Pseudomonas aeruginosa [33] = test: Synergistic antibacterial activity against wild type Pseudomonas aeruginosa PAO1 assessed as potentiation of piperacillin-induced antibacterial effect incubated for 18 hrs by checkerboard assay; assay type: functional, organism-based
Pseudomonas aeruginosa [34] = test: Antibacterial activity against wild type Pseudomonas aeruginosa PAO1 assessed as fractional inhibitory concentration index incubated for 18 hrs in presence of colistin by checkerboard assay; assay type: functional
Pseudomonas aeruginosa [35] = test: Synergistic antibacterial activity against wild type Pseudomonas aeruginosa PAO1 assessed as potentiation of fosfomycin-induced antibacterial effect incubated for 18 hrs by checkerboard assay relative to fosfomycin alone; assay type: functional
Pseudomonas aeruginosa [36] = test: Synergistic antibacterial activity against wild type Pseudomonas aeruginosa PAO1 assessed as potentiation of rifampicin-induced antibacterial effect incubated for 18 hrs by checkerboard assay relative to rifampicin alone; assay type: functional
Pseudomonas aeruginosa [37] = test: Synergistic antibacterial activity against wild type Pseudomonas aeruginosa PAO1 assessed as potentiation of ciprofloxacin-induced antibacterial effect incubated for 18 hrs by checkerboard assay; assay type: functional, organism-based
Pseudomonas aeruginosa [38] = test: Synergistic antibacterial activity against wild type Pseudomonas aeruginosa PAO1 assessed as potentiation of cefotaxime-induced antibacterial effect incubated for 18 hrs by checkerboard assay relative to cefotaxime alone; assay type: functional
Acinetobacter baumannii [39] = test: Antibacterial activity against wild type Acinetobacter baumannii ATCC 17978 by checkerboard assay; assay type: functional
Acinetobacter baumannii [40] = test: Antibacterial activity against wild type Acinetobacter baumannii ATCC 17978 assessed as resistant development at sub-MIC measured after 7 days of passaging by microbroth dilution method relative to control; assay type: functional
Acinetobacter baumannii [41] = test: Antibacterial activity against novobiocin-resistant Acinetobacter baumannii ATCC 17978 mutant generated from seven serial passages by checkerboard assay; assay type: functional
Acinetobacter baumannii [42] = test: Antibacterial activity against novobiocin and test compound-resistant Acinetobacter baumannii ATCC 17978 mutant generated from seven serial passages in presence of novobiocin by checkerboard assay; assay type: functional
Acinetobacter baumannii [43] = test: Antibacterial activity against colistin-resistant Acinetobacter baumannii ATCC 17978 mutant generated from seven serial passages by checkerboard assay; assay type: functional

NC[C@H]1O[C@H](O[C@H]2[C@H](OCCCCCCn3cc(CCCCO[C@@H]4[C@@H](O[C@H]5O[C@H](CO)[C@@H](O)[C@H](N)[C@H]5O)[C@H](N)C[C@H](N)[C@H]4O[C@H]4O[C@H](CN)[C@@H](O)C[C@H]4N)nn3)[C@@H](O[C@H]3O[C@H](CO)[C@@H](O)[C@H](N)[C@H]3O)[C@H](N)C[C@@H]2N)[C@H](N)C[C@@H]1O.O=C(O)C(F)(F)F.O=C(O)C(F)(F)F.O=C(O)C(F)(F)F.O=C(O)C(F)(F)F.O=C(O)C(F)(F)F.O=C(O)C(F)(F)F.O=C(O)C(F)(F)F.O=C(O)C(F)(F)F.O=C(O)C(F)(F)F.O=C(O)C(F)(F)F
fold change (FC) (Pseudomonas aeruginosa [1]): 4 - 128
fold change (FC) (Pseudomonas aeruginosa [2]): 4 - 128
Activity (Pseudomonas aeruginosa [3]): Dose-dependent effect
Activity (Pseudomonas aeruginosa [4]): Dose-dependent effect
Activity (Pseudomonas aeruginosa [5]): Dose-dependent effect
Activity (Pseudomonas aeruginosa [6]): Dose-dependent effect
fold change (FC) (Pseudomonas aeruginosa [7]): 4 - 128
fold change (FC) (Pseudomonas aeruginosa [8]): 4 - 128
Activity (Pseudomonas aeruginosa [9]): Dose-dependent effect
Activity (Pseudomonas aeruginosa [10]): Dose-dependent effect
Activity (Pseudomonas aeruginosa [11]): Dose-dependent effect
fold change (FC) (Pseudomonas aeruginosa [12]): 4 - 128
fold change (FC) (Pseudomonas aeruginosa [13]): 4 - 128
Activity (Pseudomonas aeruginosa [14]): Dose-dependent effect
Activity (Pseudomonas aeruginosa [15]): Dose-dependent effect
Activity (Pseudomonas aeruginosa [16]): Dose-dependent effect
fractional inhibitory concentration index (FICI) (Pseudomonas aeruginosa [17]): >4
Activity (Pseudomonas aeruginosa [18]): Dose-dependent effect
fold change (FC) (Pseudomonas aeruginosa [19]): 4 - 128
fold change (FC) (Pseudomonas aeruginosa [20]): 4 - 128
Activity (Pseudomonas aeruginosa [21]): inactive
Activity (HEK293): Non-Toxic
Activity (Pseudomonas aeruginosa [22]): Dose-dependent effect
Activity (Erythrocyte): Non-Toxic
fold change (FC) (Pseudomonas aeruginosa [23]): 4 - 128
fold change (FC) (Pseudomonas aeruginosa [24]): 4 - 128
Activity (Pseudomonas aeruginosa [25]): Dose-dependent effect
Activity (Pseudomonas aeruginosa [26]): inactive
Activity [27]: Non-Toxic
fold change (FC) (Pseudomonas aeruginosa [28]): 4 - 128
Activity (HepG2): Non-Toxic
fold change (FC) (Pseudomonas aeruginosa [29]): 4 - 128
Activity (Pseudomonas aeruginosa [30]): Dose-dependent effect
fold change (FC) (Pseudomonas aeruginosa [31]): 4 - 128
Activity (Pseudomonas aeruginosa [32]): inactive
Activity (Pseudomonas aeruginosa [33]): Dose-dependent effect
fractional inhibitory concentration index (FICI) (Pseudomonas aeruginosa [34]): >4
fold change (FC) (Pseudomonas aeruginosa [35]): 4 - 128
fold change (FC) (Pseudomonas aeruginosa [36]): 4 - 128
Activity (Pseudomonas aeruginosa [37]): Dose-dependent effect
fold change (FC) (Pseudomonas aeruginosa [38]): 4 - 128

COLISTIN
MIC (Acinetobacter baumannii [39]): 0.063 µg/mL
fold change (FC) (Acinetobacter baumannii [40]): 1024
MIC (Acinetobacter baumannii [41]): 8 µg/mL
MIC (Acinetobacter baumannii [42]): 0.031 µg/mL
MIC (Acinetobacter baumannii [43]): 1020 µg/mL
